From the NIST ThermoML archive (doi:10.1016/j.fluid.2008.03.004)

Assay: xn = mol fraction of the nth substance listed
Settings: 101 kPa, Liquid; for speed of sound: Sing-around technique in a fixed-path interferometer

CCOC(C)(C)C [2-ethoxy-2-methylpropane] + Cc1ccccc1C
Settings	mass density [kg/m3]	speed of sound [m/s]
288.15 K, x1 = 0.055	875.654	1371.2
288.15 K, x1 = 0.098	870.017	1357.8
288.15 K, x1 = 0.201	855.684	1324.8
288.15 K, x1 = 0.307	840.866	1290.1
288.15 K, x1 = 0.4	827.772	1261.6
288.15 K, x1 = 0.502	813.516	1228.9
288.15 K, x1 = 0.601	800.311	1199
288.15 K, x1 = 0.661	791.943	1180.1
288.15 K, x1 = 0.803	772.557	1137.4
288.15 K, x1 = 0.895	759.896	1110.2
288.15 K, x1 = 0.947	752.872	1095
288.15 K, x1 = 1	744.955	1076.4
290.65 K, x1 = 0.055	873.542	1360.8
290.65 K, x1 = 0.098	867.884	1347.3
290.65 K, x1 = 0.201	853.503	1314.3
290.65 K, x1 = 0.307	838.637	1279.4
290.65 K, x1 = 0.4	825.503	1251
290.65 K, x1 = 0.502	811.198	1218.2
290.65 K, x1 = 0.601	797.952	1188.2
290.65 K, x1 = 0.661	789.556	1169.2
290.65 K, x1 = 0.803	770.105	1126.4
290.65 K, x1 = 0.895	757.404	1099.4
290.65 K, x1 = 0.947	750.354	1084.5
290.65 K, x1 = 1	742.482	1065.1
293.15 K, x1 = 0.055	871.419	1350.4
293.15 K, x1 = 0.098	865.74	1336.8
293.15 K, x1 = 0.201	851.313	1303.8
293.15 K, x1 = 0.307	836.397	1268.7
293.15 K, x1 = 0.4	823.223	1240.4
293.15 K, x1 = 0.502	808.871	1207.4
293.15 K, x1 = 0.601	795.578	1177.3
293.15 K, x1 = 0.661	787.156	1158.3
293.15 K, x1 = 0.803	767.641	1115.4
293.15 K, x1 = 0.895	754.895	1088.5
293.15 K, x1 = 0.947	747.821	1073.5
293.15 K, x1 = 1	739.947	1053.7
295.65 K, x1 = 0.055	869.295	1339.8
295.65 K, x1 = 0.098	863.594	1326.3
295.65 K, x1 = 0.201	849.119	1293.2
295.65 K, x1 = 0.307	834.156	1257.9
295.65 K, x1 = 0.4	820.937	1229.6
295.65 K, x1 = 0.502	806.537	1196.5
295.65 K, x1 = 0.601	793.199	1166.3
295.65 K, x1 = 0.661	784.75	1147.3
295.65 K, x1 = 0.803	765.167	1104.3
295.65 K, x1 = 0.895	752.377	1077.3
295.65 K, x1 = 0.947	745.278	1062.5
295.65 K, x1 = 1	737.374	1042.2
298.15 K, x1 = 0.055	867.167	1329.3
298.15 K, x1 = 0.098	861.446	1315.8
298.15 K, x1 = 0.201	846.922	1282.7
298.15 K, x1 = 0.307	831.91	1247.3
298.15 K, x1 = 0.4	818.651	1218.9
298.15 K, x1 = 0.502	804.2	1185.7
298.15 K, x1 = 0.601	790.817	1155.5
298.15 K, x1 = 0.661	782.341	1136.4
298.15 K, x1 = 0.803	762.689	1093.3
298.15 K, x1 = 0.895	749.853	1066.3
298.15 K, x1 = 0.947	742.726	1051.4
298.15 K, x1 = 1	734.806	1031
300.65 K, x1 = 0.055	865.039	1318.9
300.65 K, x1 = 0.098	859.296	1305.5
300.65 K, x1 = 0.201	844.725	1272.3
300.65 K, x1 = 0.307	829.661	1236.7
300.65 K, x1 = 0.4	816.36	1208.3
300.65 K, x1 = 0.502	801.859	1175
300.65 K, x1 = 0.601	788.431	1144.7
300.65 K, x1 = 0.661	779.923	1125.5
300.65 K, x1 = 0.803	760.203	1082.3
300.65 K, x1 = 0.895	747.321	1055.2
300.65 K, x1 = 0.947	740.169	1040.3
300.65 K, x1 = 1	732.225	1019.8
303.15 K, x1 = 0.055	862.904	1308.4
303.15 K, x1 = 0.098	857.143	1295.2
303.15 K, x1 = 0.201	842.523	1262
303.15 K, x1 = 0.307	827.409	1226.2
303.15 K, x1 = 0.4	814.064	1197.8
303.15 K, x1 = 0.502	799.512	1164.3
303.15 K, x1 = 0.601	786.037	1133.9
303.15 K, x1 = 0.661	777.502	1114.7
303.15 K, x1 = 0.803	757.711	1071.3
303.15 K, x1 = 0.895	744.78	1044.2
303.15 K, x1 = 0.947	737.602	1029.1
303.15 K, x1 = 1	729.647	1008.6
305.65 K, x1 = 0.055	860.769	1298
305.65 K, x1 = 0.098	854.986	1285
305.65 K, x1 = 0.201	840.317	1251.6
305.65 K, x1 = 0.307	825.151	1215.8
305.65 K, x1 = 0.4	811.766	1187.3
305.65 K, x1 = 0.502	797.158	1153.6
305.65 K, x1 = 0.601	783.634	1123.1
305.65 K, x1 = 0.661	775.073	1103.9
305.65 K, x1 = 0.803	755.208	1060.3
305.65 K, x1 = 0.895	742.232	1033.2
305.65 K, x1 = 0.947	735.025	1018
305.65 K, x1 = 1	727.038	997.52
308.15 K, x1 = 0.055	858.631	1287.6
308.15 K, x1 = 0.098	852.826	1274.8
308.15 K, x1 = 0.201	838.108	1241.4
308.15 K, x1 = 0.307	822.889	1205.4
308.15 K, x1 = 0.4	809.458	1176.8
308.15 K, x1 = 0.502	794.798	1143
308.15 K, x1 = 0.601	781.229	1112.4
308.15 K, x1 = 0.661	772.636	1093.1
308.15 K, x1 = 0.803	752.697	1049.4
308.15 K, x1 = 0.895	739.673	1022.1
308.15 K, x1 = 0.947	732.438	1007
308.15 K, x1 = 1	724.443	986.39
310.65 K, x1 = 0.055	856.488	1277.2
310.65 K, x1 = 0.098	850.664	1264.8
310.65 K, x1 = 0.201	835.894	1231.1
310.65 K, x1 = 0.307	820.623	1195
310.65 K, x1 = 0.4	807.147	1166.3
310.65 K, x1 = 0.502	792.433	1132.4
310.65 K, x1 = 0.601	778.816	1101.8
310.65 K, x1 = 0.661	770.192	1082.4
310.65 K, x1 = 0.803	750.176	1038.6
310.65 K, x1 = 0.895	737.1	1011.2
310.65 K, x1 = 0.947	729.838	996
310.65 K, x1 = 1	721.826	975.42
313.15 K, x1 = 0.055	854.337	1267.1
313.15 K, x1 = 0.098	848.496	1254.7
313.15 K, x1 = 0.201	833.676	1220.9
313.15 K, x1 = 0.307	818.351	1184.6
313.15 K, x1 = 0.4	804.83	1155.9
313.15 K, x1 = 0.502	790.061	1121.9
313.15 K, x1 = 0.601	776.395	1091.1
313.15 K, x1 = 0.661	767.738	1071.7
313.15 K, x1 = 0.803	747.65	1027.7
313.15 K, x1 = 0.895	734.522	1000.3
313.15 K, x1 = 0.947	727.227	985.03
313.15 K, x1 = 1	719.179	964.53
315.65 K, x1 = 0.055	852.189	1256.9
315.65 K, x1 = 0.098	846.323	1244.6
315.65 K, x1 = 0.201	831.454	1210.7
315.65 K, x1 = 0.307	816.076	1174.3
315.65 K, x1 = 0.4	802.508	1145.5
315.65 K, x1 = 0.502	787.684	1111.4
315.65 K, x1 = 0.601	773.969	1080.5
315.65 K, x1 = 0.661	765.278	1061
315.65 K, x1 = 0.803	745.112	1017
315.65 K, x1 = 0.895	731.932	989.44
315.65 K, x1 = 0.947	724.606	974.07
315.65 K, x1 = 1	716.527	953.54
318.15 K, x1 = 0.055	850.034	1246.8
318.15 K, x1 = 0.098	844.148	1234.5
318.15 K, x1 = 0.201	829.229	1200.6
318.15 K, x1 = 0.307	813.795	1164.1
318.15 K, x1 = 0.4	800.179	1135.1
318.15 K, x1 = 0.502	785.298	1100.9
318.15 K, x1 = 0.601	771.536	1070
318.15 K, x1 = 0.661	762.809	1050.4
318.15 K, x1 = 0.803	742.564	1006.2
318.15 K, x1 = 0.895	729.329	978.59
318.15 K, x1 = 0.947	721.974	963.16
318.15 K, x1 = 1	713.96	942.67
320.65 K, x1 = 0.055	847.874	1236.7
320.65 K, x1 = 0.098	841.964	1224.5
320.65 K, x1 = 0.201	826.995	1190.5
320.65 K, x1 = 0.307	811.507	1153.8
320.65 K, x1 = 0.4	797.84	1124.8
320.65 K, x1 = 0.502	782.908	1090.4
320.65 K, x1 = 0.601	769.096	1059.4
320.65 K, x1 = 0.661	760.332	1039.8
320.65 K, x1 = 0.803	740.007	995.53
320.65 K, x1 = 0.895	726.717	967.79
320.65 K, x1 = 0.947	719.329	952.29
320.65 K, x1 = 1	711.25	931.73
323.15 K, x1 = 0.055	845.711	1226.7
323.15 K, x1 = 0.098	839.779	1214.5
323.15 K, x1 = 0.201	824.757	1180.4
323.15 K, x1 = 0.307	809.216	1143.6
323.15 K, x1 = 0.4	795.504	1114.5
323.15 K, x1 = 0.502	780.509	1080
323.15 K, x1 = 0.601	766.647	1049
323.15 K, x1 = 0.661	757.845	1029.2
323.15 K, x1 = 0.803	737.438	984.84
323.15 K, x1 = 0.895	724.092	957.05
323.15 K, x1 = 0.947	716.673	941.53
323.15 K, x1 = 1	708.642	920.73
